According to patent US20090246169A1, “INDOLOPYRIDINES AS EG5 KINESIN MODULATORS” (priority 2006, published 2009):

What follows are molecules tested on RKO p21 colon adenocarcinoma cells, uninduced (proliferating) (assay: Alamar Blue cell viability assay, RKO p21 uninduced (proliferating)). Details: Homo sapiens; anti-proliferative/cytotoxic activity, 72 hours, without Ponasterone A; read-out: −log EC50 [mol/l] RKO p21 uninduced (proliferating) (converted).
Type: cell-based
Protocol: The anti-proliferative/cytotoxic activity of the compounds described herein can be tested on subclones of RKO human colon adenocarcinoma cells (Schmidt et al., Oncogene 19, 2423-2429; 2000) using the Alamar Blue cell viability assay (described in O'Brien et al. Eur J Biochem 267, 5421-5426, 2000). The compounds are dissolved as 10 mM solutions in DMSO and subsequently diluted in semi-logarithmic steps. DMSO dilutions are further diluted 1:100 into Dulbecco's modified Eagle's medium (DMEM) containing 10% fetal calf serum to a final concentration twice as much as the final concentration in the test. RKO subclones are seeded into 96 well flat bottom plates at a density of 4000 cells per well in a volume of 50 μl per well. 24 hours after seeding the 50 μl each of the compound dilutions in DMEM medium are added into each well of the 96 well plate. Each compound dilution is tested as triplicates. Wells containing untreated control cells are filled with 50 μl DMEM medium containing 1% DMSO. The cells are then incubated with the substances for 72 hours at 37° C. in a humidified atmosphere containing 5% carbon dioxide. To determine the viability of the cells, 10 μl of an Alamar Blue solution (Biosource) are added and the fluorescence is measured at an extinction of 544 nm and an emission of 590 nm. For the calculation of the cell viability the emission value from untreated cells is set as 100% viability and the emission rates of treated cells are set in relation to the values of untreated cells. Viabilities are expressed as % values. The Graphpad Prism program is used for the calculation of EC50 values for anti-proliferative/cytotoxic activity out of the obtained dose-response curves.
To determine the cell cycle specific mode of action, subclones of RKO colon adenocarcinoma cells (RKOp21 or RKOp27 as described by Schmidt et al. in Oncogene 19, 2423-2429; 2000) are seeded into 96 well flat bottom plates at a density of 16000 cells per well in a volume of 50 μl per well in DMEM growth medium with 10% FCS containing 10 μM Ponasterone A. 24 hours after seeding the 50 μl each of the compound dilutions in DMEM medium are added into each well of the 96-well plate. Each compound dilution is tested as triplicates. Wells containing untreated control cells are filled with 50 μl DMEM medium containing 1% DMSO. The cells are then incubated with the substances for 72 hours at 37° C. in a humidified atmosphere containing 5% carbon dioxide. To determine the viability of the cells, 10 μl of an Alamar Blue solution (Biosource) are added and the fluorescence is measured at an extinction of 544 nm and an emission of 590 nm. For the calculation of the cell viability the emission value from untreated cells is set as 100% viability and the emission rates of treated cells are set in relation to the values of untreated cells. Viabilities are expressed as % values. The Graphpad Prism program (GraphPad Software, Inc) is used for the calculation of EC50 values out of the obtained dose-response curves. Viability is compared of proliferating cells grown in the absence of the inducer Ponasterone A, versus viability of cells arrested by the expression of ectopic p27Kip1 induced by Ponasterone A.
Representative values for anti-proliferation/cytotoxicity [measured as −log EC50 (mol/l)] determined in the aforementioned assays follow from the following tables B1 and B2, in which the numbers of the compounds correspond to the numbers of the examples.

SMILES | EC50 [nM]
COc1ccc2[nH]c3c(c2c1)C[C@@]1(C)C(=O)N(CCN2CCN(C(C)=O)CC2)C(=O)N1[C@@H]3c1ccccc1 (racemic) [Example 47, (3aSR, 10RS)-2-[2-(4-Acetyl-piperazin-1-yl)-ethyl]-6-methoxy-3a-methyl-10-phenyl-3a,4,9,10-tetrahydro-2,9,10a-triaza-cyclopenta[b] fluorene-1,3-dione] | ≤ 1000
C=CCN(C)CCN1C(=O)N2[C@H](c3ccccc3)c3[nH]c4ccc(OC)cc4c3C[C@@]2(C)C1=O (racemic) [Example 37, (3aSR, 10RS)-2-[2-(Allyl-methyl-amino)-ethyl]-6-methoxy-3a-methyl-10-phenyl-3a,4,9,10-tetrahydro-2,9,10a-triaza-cyclopenta [b]fluorene-1,3-dione] | ≤ 1000
C=CCN(C)CCCN1C(=O)N2[C@H](c3ccccc3)c3[nH]c4ccc(OC)cc4c3C[C@@]2(C)C1=O (racemic) [Example 57, (3aSR, 10RS)-2-[3-(Allyl-methyl-amino)-propyl]-6-methoxy-3a-methyl-10-phenyl-3a,4,9,10-tetrahydro-2,9,10a-triaza-cyclopenta[b] fluorene-1,3-dione] | ≤ 1000
COc1ccc2[nH]c3c(c2c1)C[C@@]1(C)C(=O)N(CCN(C)C(C)C)C(=O)N1[C@@H]3c1ccccc1 (racemic) [Example 39, (3aSR, 10RS)-2-[2-(Isopropyl-methyl-amino)-ethyl]-6-methoxy-3a-methyl-10-phenyl-3a,4,9,10-tetra-hydro-2,9,10a-triaza-cyclo-penta[b]fluorene-1,3-dione] | ≤ 1000
COc1ccc2[nH]c3c(c2c1)C[C@@]1(C)C(=O)N(CCCNC2CC2)C(=O)N1[C@@H]3c1ccccc1 (racemic) [Example 71, (3aSR, 10RS)-2-(3-Cyclo-propylamino-propyl)-6-methoxy-3a-methyl-10-phenyl-3a,4,9,10-tetrahydro-2,9,10a-triaza-cyclopenta[b] fluorene-1,3-dione] | ≤ 1000
CCN(CC)CCCN1C(=O)N2[C@H](c3ccccc3)c3[nH]c4ccc(OC)cc4c3C[C@@]2(C)C1=O (racemic) [Example 54, (3aSR, 10RS)-2-(3-Diethyl-amino-propyl)-6-methoxy-3a-methyl-10-phenyl-3a,4,9,10-tetrahydro-2,9,10a-triaza-cyclopenta[b]fluorene-1,3-dione] | ≤ 1000
COc1ccc2[nH]c3c(c2c1)C[C@@]1(C)C(=O)N(CCN2CC=CC2)C(=O)N1[C@@H]3c1ccccc1 (racemic) [Example 31, (3aSR, 10RS)-2-[2-(2,5-Dihydro-pyrrol-1-yl)-ethyl]-6-methoxy-3a-methyl-10-phenyl-3a,4,9,10-tetrahydro-2,9,10a-triaza-cyclopenta[b] fluorene-1,3-dione] | ≤ 1000
CCNCCCN1C(=O)N2[C@H](c3ccccc3)c3[nH]c4ccc(OC)cc4c3C[C@@]2(C)C1=O (racemic) [Example 44, (3aSR, 10RS)-2-(3-Ethyl-amino-propyl)-6-methoxy-3a-methyl-10-phenyl-3a,4,9,10-tetrahydro-2,9,10a-triaza-cyclopenta[b]fluorene-1,3-dione] | ≤ 1000
COc1ccc2[nH]c3c(c2c1)C[C@@]1(C)C(=O)N(CCCN2CCC2)C(=O)N1[C@@H]3c1ccccc1 (racemic) [Example 60, (3aSR, 10RS)-2-(3-Azetidin-1-yl-propyl)-6-methoxy-3a-methyl-10-phenyl-3a,4,9,10-tetrahydro-2,9,10a-triaza-cyclopenta[b]fluorene-1,3-dione] | ≤ 1000
C#CCNCCN1C(=O)N2[C@H](c3ccccc3)c3[nH]c4ccc(OC)cc4c3C[C@@]2(C)C1=O (racemic) [Example 29, (3aSR, 10RS)-6-Methoxy-3a-methyl-10-phenyl-2-(2-prop-2-ynylamino-ethyl)-3a,4,9,10-tetrahydro-2,9,10a-triaza-cyclopenta[b]fluorene-1,3-dione] | ≤ 1000
